Results on 12 compounds are retold here after ChEMBL document CHEMBL4616670, “Phosphine Oxides from a Medicinal Chemist's Perspective: Physicochemical and in Vitro Parameters Relevant for Drug Discovery” (J Med Chem, 2020).

Converted amounts (≈) assume the structure as drawn.

Data set [1] can be described thus: Acid dissociation constant, pKa of the compound by UV absorption spectra analysis or potentiometric titration technique. It counts as physicochemical.
The nature of data set [2]: in vitro. The following applies: human, liver microsomes.
Description: Half life in human liver microsomes at 1 uM incubated prior to NADPH addition by LC-MS/MS analysis
Data set [3] is described as follows: in vitro. The settings on record: human, liver microsomes. The source holds these as a separate data set. On the technique in general: Liver microsomes are a subcellular fraction often used to study metabolism.
Description: Stability in human liver microsomes at 1 uM incubated prior to NADPH addition by LC-MS/MS analysis relative to hepatic blood flow
A short description of data set [4]: physchem. The settings on record: pH 6.8 buffer.
A short description of data set [5]: physchem. The settings on record: pH 6.8 buffer. The source holds these as a separate data set.
Data set [6] can be described thus: in vitro. The following applies: human, Caco-2.
Description: Permeability across apical to basolateral side in human Caco2 cells measured up to 2 hrs by LC-MS/MS analysis or scintillation counting method
Data set [7] can be described thus: in vitro. The settings on record: human, Caco-2. The source holds these as a separate data set.
Description: Efflux ratio of permeability in human Caco2 cells measured up to 2 hrs by LC-MS/MS analysis or scintillation counting method
Data set [8] can be described thus: Equilibrium thermodynamic aqueous solubility of the compound in pH 2 buffer incubated for 24 hrs by UV-spectroscopy based shake flask method. Format: physicochemical. The following applies: read-out: Therm_solubility.
For data set [9] the following is noted: 168 h.
Description: Chemical stability of the compound in MeOH/NH3 solution at pH >10 assessed as compound decomposition measured after 7 days by UV-RP-HPLC analysis
The nature of data set [10]: physchem. The settings on record: octanol/water, pH 2.
Description: Octanol/water partition coefficient, log D of the compound at pH 2
Data set [11] can be described thus: physchem. The settings on record: MeOH/HCl solution.
Description: Chemical stability of the compound in MeOH/HCl solution at pH <1 assessed as compound decomposition measured after 7 days by UV-RP-HPLC analysis
A short description of data set [12]: Equilibrium thermodynamic aqueous solubility of the compound in pH 2.1 buffer incubated for 24 hrs by UV-spectroscopy based shake flask method. The settings on record: read-out: Therm_solubility. It counts as physicochemical.
The conditions of data set [13]: 24 h.
Description: Chemical stability of the compound in MeOH/NH3 solution at pH >10 assessed as compound decomposition measured after 1 day by UV-RP-HPLC analysis
The nature of data set [14]: physchem. The settings on record: octanol/water, pH 11.
Description: Octanol/water partition coefficient, log D of the compound at pH 11
Data set [15] in a line: Basic dissociation constant, pKb of the compound by UV absorption spectra analysis or potentiometric titration technique. It counts as physicochemical.
Data set [16] is described as follows: Chemical stability of the compound in MeOH/H2O solution at pH >10 assessed as compound decomposition measured after 1 day by UV-RP-HPLC analysis. Format: physicochemical. The settings on record: read-out: Drug degradation.
Data set [17] in a line: in vitro. The following applies: human, plasma.
Description: Protein binding in human plasma
The nature of data set [18]: Chemical stability of the compound in MeOH/HCl solution at pH <1 assessed as compound decomposition measured after 1 day by UV-RP-HPLC analysis. Format: physicochemical. The following applies: read-out: Drug degradation.
Data set [19] can be described thus: Acid dissociation constant, pKa1 of the compound by UV absorption spectra analysis or potentiometric titration technique. It counts as physicochemical.
Data set [20] in a line: Acid dissociation constant, pKa2 of the compound by UV absorption spectra analysis or potentiometric titration technique. Format: physicochemical.
Data set [21] can be described thus: Equilibrium thermodynamic aqueous solubility of the compound in pH 2.3 buffer incubated for 24 hrs by UV-spectroscopy based shake flask method. Format: physicochemical. The following applies: read-out: Therm_solubility.
Data set [22] can be described thus: Equilibrium thermodynamic aqueous solubility of the compound in pH 5.9 buffer incubated for 24 hrs by UV-spectroscopy based shake flask method. It counts as physicochemical. The settings on record: read-out: Therm_solubility.

For the compound `O=C(O)c1ccc(C(F)(F)F)cc1`, the pKa (usually the negative logarithm of the acid dissociation constant) in data set [1] is 3.5. Further, the half-life (usually how long it takes for the measured level to halve) at 1 µM in data set [2] is > 2.17 h. In addition, the hepatic extraction ratio at 1 µM in data set [3] is < 0.23. The solubility thermodynamic at 24 h was > 48 µg/mL in data set [4] and > 10000 µg/mL in data set [5]. Moreover, the Papp A→B (in general, the apparent permeability from the apical to the basolateral side of a cell layer) at 2 h in data set [6] came to 15 ×10⁻⁶ cm/s. Besides, the efflux ratio (usually a quotient of directional permeabilities that is used to spot active efflux) at 2 h in data set [7] amounted to 1.3.

Turning to `COP(=O)(O)c1ccc(C(F)(F)F)cc1`, the solubility thermodynamic at 24 h was 27300 µg/mL (≈ 114 mM) in data set [8] and > 60 µg/mL in data set [4]. The Drug degradation in data set [9] is listed as < 10%. Moreover, the logD (commonly lipophilicity at a set pH, counting ionised and neutral species) in data set [10] is 1.3. Moreover, the half-life at 1 µM in data set [2] was > 2.17 h. For the same compound, in data set [3], the hepatic extraction ratio at 1 µM is < 0.23. Besides, in [11], the degraded at 168 h was < 10%.

On to `O=P(O)(OCCO)c1ccc(C(F)(F)F)cc1`, for which the figures for the solubility thermodynamic at 24 h in data set [12] and in [4] were > 28500 µg/mL and > 63 µg/mL, respectively. For the same compound, the Drug degradation in [9] was < 10%. Also, in [11], the degraded at 168 h was < 10%.

Regarding `O=P1(c2ccc(C(F)(F)F)cc2)OCCCO1`, the Drug degradation in [9] was 70%; in data set [13], > 90%. Moreover, the logD in [10] amounted to 2.1; in [14], 1.5. The half-life at 1 µM in [2] was > 2.17 h. For the same compound, the hepatic extraction ratio at 1 µM in [3] is < 0.23. Also, the solubility thermodynamic at 24 h in [4] was > 66 µg/mL; in data set [5] it was 8800 µg/mL (≈ 33.1 mM). The compound further yielded a Papp A→B at 2 h in data set [6] of 95 ×10⁻⁶ cm/s. Besides, the efflux ratio at 2 h in data set [7] came to 0.4. For the same compound, the degraded at 168 h in [11] was < 10%.

For the compound `O=P1(c2ccc(C(F)(F)F)cc2)OCCNCCO1`, the negative logarithm of the Kb (pKb) (commonly the negative decadic logarithm of the Kb, by convention in mol/L) in data set [15] came to 6. The degraded at 24 h in data set [16] amounted to 20%. Further, the results for the logD in data set [10] and in [14] were 0.5 and 1.5, respectively. For the same compound, in data set [2], the half-life at 1 µM was > 2.17 h. Also, the hepatic extraction ratio at 1 µM in data set [3] is < 0.23. In addition, the solubility thermodynamic at 24 h is 66 µg/mL (≈ 0.224 mM) in data set [4] and > 10000 µg/mL in data set [5]. The compound also displayed a Papp A→B at 2 h in data set [6] of 63 ×10⁻⁶ cm/s. Moreover, the efflux ratio at 2 h in [7] came to 0.7. The degraded at 168 h in data set [11] was < 10%.

In the case of `CCOP(=O)(OCC)c1ccc(C(=O)Nc2ccc(C)c(Nc3nccc(-c4cccnc4)n3)c2)cc1`, the results for the logD in data set [10] and in data set [14] were 1.5 and 2.8, respectively. In addition, the half-life at 1 µM in data set [2] came out at 0.283 h. The hepatic extraction ratio at 1 µM in [3] came out at 0.7. Further, the solubility thermodynamic at 24 h in data set [4] was 1 µg/mL (≈ 0.00193 mM); in data set [5], < 1 µg/mL. This compound registered a Papp A→B at 2 h in [6] of 18 ×10⁻⁶ cm/s. For the same compound, the efflux ratio at 2 h in [7] came out at 1.6. Moreover, the fraction unbound (in general, free concentration divided by total concentration) in [17] is 0.019.

Take `O=P1(c2ccc(C(F)(F)F)cc2)NCCCO1` (stereo not given): the degraded at 24 h in data set [18] was > 90%. Moreover, the Drug degradation in [13] was > 90%. The pH-dependent lipophilicity (logD) in data set [10] came out at 2; in data set [14], 1.3. The half-life at 1 µM in data set [2] is > 2.17 h. In addition, the hepatic extraction ratio at 1 µM in data set [3] is < 0.23. In addition, the solubility thermodynamic at 24 h in data set [4] is > 60 µg/mL. In data set [6], this compound had a Papp A→B at 2 h of 57 ×10⁻⁶ cm/s. In [7], the efflux ratio at 2 h amounted to 0.7.

`O=P(O)(O)c1ccc(C(F)(F)F)cc1`: the pKa in data set [19] was < 2; in data set [20], 6.8. Further, the solubility thermodynamic at 24 h in [21] was 17800 µg/mL (≈ 78.7 mM); in [4], > 54 µg/mL. For the same compound, the Drug degradation in data set [9] is < 10%. The logD in data set [10] was 0.6; in [14] it was < -1.6. In addition, the degraded at 168 h in data set [11] is < 10%.

For the compound `Cc1ccc(NC(=O)c2ccc(P(C)(C)=O)cc2)cc1Nc1nccc(-c2cccnc2)n1`, the logD in [10] was 0.4; in data set [14] it was 1.5. In addition, in data set [2], the half-life at 1 µM is > 2.17 h. Further, in data set [3], the hepatic extraction ratio at 1 µM is < 0.23. The results for the solubility thermodynamic at 24 h in data set [4] and in data set [5] were 77 µg/mL (≈ 0.168 mM) and 20 µg/mL (≈ 0.0437 mM), respectively. In data set [6], the Papp A→B at 2 h turned out to be 0.1 ×10⁻⁶ cm/s. In addition, the efflux ratio at 2 h in data set [7] was determined as 16. The same compound showed a fraction unbound in data set [17] of 0.163.

Regarding `CCOP(=O)(O)c1ccc(C(F)(F)F)cc1`, the solubility thermodynamic at 24 h in data set [12] is 280000 µg/mL (≈ 1100 mM); in [4], > 64 µg/mL. In addition, the Drug degradation in [9] is listed as < 10%. Besides, the logD in data set [10] was 1.9; in [14], -0.8. Moreover, in data set [2], the half-life at 1 µM is > 2.17 h. Also, the hepatic extraction ratio at 1 µM in data set [3] was < 0.23. This compound registered a Papp A→B at 2 h in data set [6] of 10 ×10⁻⁶ cm/s. Besides, in data set [7], the efflux ratio at 2 h was < 0.1. The degraded at 168 h in [11] is < 10%.

As for `CC1(C)COP(=O)(c2ccc(C(F)(F)F)cc2)OC1`, in data set [13], the Drug degradation is recorded as > 90%. Further, the logD in data set [10] stood at 3.1; in [14] it was 2.6. Moreover, the half-life at 1 µM in data set [2] was > 2.17 h. The hepatic extraction ratio at 1 µM in data set [3] was < 0.23. The solubility thermodynamic at 24 h was > 67 µg/mL in data set [4] and 2800 µg/mL (≈ 9.52 mM) in data set [5]. The Papp A→B at 2 h in data set [6] was 73 ×10⁻⁶ cm/s. The efflux ratio at 2 h in data set [7] was 0.6. In addition, the degraded at 168 h in data set [11] was < 10%.

Regarding `CP(=O)(O)c1ccc(C(F)(F)F)cc1`, the pKa in data set [1] stood at 2. Besides, the values for the solubility thermodynamic at 24 h in data set [22] and in [4] were > 8900 µg/mL and > 49 µg/mL, respectively. In data set [9], the Drug degradation is listed as < 10%. Moreover, the values for the logD in [10] and in data set [14] were 1.3 and -1.3, respectively. Moreover, in [2], the half-life at 1 µM is > 2.17 h. Moreover, the hepatic extraction ratio at 1 µM in data set [3] is < 0.23. For the same compound, the Papp A→B at 2 h in data set [6] was < 5 ×10⁻⁶ cm/s. Moreover, the degraded at 168 h in data set [11] was < 10%.
